Laboratory results taken from PMC6928678, “Simplified Head-to-Tail Cyclic Polypeptides as Biomaterial-Associated Antimicrobials with Endotoxin Neutralizing and Anti-Inflammatory Capabilities” (International Journal of Molecular Sciences, 2019).
Where a SMILES comes first, the peptide text is derived from it. [ ]: non-standard residue; d: D form. Orn = NCCC[C@H](N)C(=O)O

System: RAW264.7 cells
Experiment: MTT cytotoxicity assay
Format: cell-based, mouse
Details: 0.5–128 μM, 24 h
Experimental: Figure 2 (A) Hemolytic activity of the engineered peptides against human red blood cells (hRBCs). The hRBCs were incubated with equal amounts of the respective peptides dissolved in PBS for 1 h at 37 °C. (B) Cytotoxicity of the engineered peptides against RAW264.7. The cells were incubated with various concentrations (0.5–128 μM) of peptides for 24 h, and the cell viability was determined by the MTT assay. Data shown are three independent experiments.
The MTT (3-[4, 5 dimethylthiozol-2-yl]-2,5-diphenyltetrazolium bromide) assay was conducted according to a previously reported MTT colorimetric method, and is used as a cell proliferation and cell viability assay. Mouse macrophage RAW264.7 cell lines stored in liquid nitrogen were recovered and cultured in a fully humidified atmosphere with 95% air and 5% CO2 at 37 °C. The cells were then diluted, added to 96-well plates at a final concentration of 2 × 10^5 cells/well, and cultured in RPMI 1640 medium at 37 °C overnight. The next day, peptides were added to the cell cultures at final concentrations of 0.5–128 μM, and untreated cell cultures serving as controls were cultured for 20–24 h in the same conditions. […] 150 μL of DMSO was added to dissolve the formazan crystals, and the OD was measured using a microplate reader (Tecan GENios F129004, Salzburg, Austria) at 570 nm. […]

Compound: CC(C)C[C@@H]1NC(=O)[C@H](CCCN)NC(=O)[C@H](C(C)C)NC(=O)[C@@H]2CCCN2C(=O)[C@@H](Cc2ccccc2)NC(=O)[C@H](CC(C)C)NC(=O)[C@H](CCCN)NC(=O)[C@H](C(C)C)NC(=O)[C@@H]2CCCN2C(=O)[C@@H](Cc2ccccc2)NC1=O [GS, gramicidin S, reference compound] (cyclo(V[Orn]L[dF]PV[Orn]L[dF]P))
- toxicity towards mammalian cells (RAW264.7): highly toxic
